Test results reported in US9365584B2, “Thieno [2,3-B] pyridinedione activators of AMPK and therapeutic uses thereof” (Poxel, priority 2009, dated 2016).

Legend:
ob/ob and db/db mice = details: 8 day AICAR administration; cited from earlier work
AMPK = AMPK enzyme activity assay (Delfia technology, AMARA peptide substrate); type: biochemical; details: compound at 30 μM vs AMP at 200 μM
Method in brief: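 Value is the ratio of compound (30 μM) to AMP (200 μM) response, each as % of basal control. Phosphorylation of the AMARA peptide after AMPK addition was read by Delfia with an anti-phosphoserine antibody.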

| Compound | reduces blood glucose (ob/ob and db/db mice) | Activity: Ratio between the % of control (basal activity) of compound of formula (1) at 30 μM and the % of control (basal activity) of AMP (natural substrate) at 200 μM (AMPK) |
| --- | --- | --- |
| NC(=O)c1ncn([C@@H]2O[C@H](CO)[C@@H](O)[C@H]2O)c1N [AICAR] | 35% |  |
| COc1cccc(-c2csc3c2C(=O)C(F)(c2ccccc2)C(=O)N3)c1 (stereo not shown) [No 205, 5-fluoro-3-(3-methoxyphenyl)-5-phenyl-7H-thieno[2,3-b]pyridine-4,6-dione] |  | B (50%≦B<75%) |
| COc1cccc(-c2c(F)sc3c2C(=O)C(F)(c2ccccc2)C(=O)N3)c1 (stereo not shown) [No 206, 2,5-difluoro-3-(3-methoxyphenyl)-5-phenyl-7H-thieno[2,3-b]pyridine-4,6-dione] |  | C (C≧75%) |
| COc1ccccc1C1(F)C(=O)Nc2scc(-c3ccccc3)c2C1=O (stereo not shown) [No 207, 5-fluoro-5-(2-methoxyphenyl)-3-phenyl-7H-thieno[2,3-b]pyridine-4,6-dione] |  | A (0%<A<50%) |
| O=C1Nc2scc(-c3ccncc3)c2C(=O)C1(F)c1ccccc1 (stereo not shown) [No 208, 5-fluoro-5-phenyl-3-(4-pyridyl)-7H-thieno[2,3-b]pyridine-4,6-dione] |  | A (0%<A<50%) |
| Cc1cccc(C2(F)C(=O)Nc3sc(Cl)c(-c4cccc(F)c4)c3C2=O)c1 (stereo not shown) [No 210, 2-chloro-5-fluoro-3-(3-fluorophenyl)-5-(m-tolyl)-7H-thieno[2,3-b]pyridine-4,6-dione] |  | C (C≧75%) |
| N#Cc1cccc(C2(F)C(=O)Nc3sc(Cl)c(-c4cccc(F)c4)c3C2=O)c1 (stereo not shown) [No 211, 3-[2-chloro-5-fluoro-3-(3-fluorophenyl)-4,6-dioxo-7H-thieno[2,3-b]pyridin-5-yl]benzonitrile] |  | C (C≧75%) |
| O=C1Nc2sc(Cl)c(-c3cccc(F)c3)c2C(=O)C1(F)c1cccnc1 (stereo not shown) [No 212, 2-chloro-5-fluoro-3-(3-fluorophenyl)-5-(3-pyridyl)-7H-thieno[2,3-b]pyridine-4,6-dione] |  | C (C≧75%) |
| Cc1cccc(-c2c(Cl)sc3c2C(=O)C(F)(c2ccccc2)C(=O)N3)c1O (stereo not shown) [No 213, 2-chloro-5-fluoro-3-(2-hydroxy-3-methyl-phenyl)-5-phenyl-7H-thieno[2,3-b]pyridine-4,6-dione] |  | C (C≧75%) |
| O=C1Nc2scc(-c3cccnc3)c2C(=O)C1(F)c1ccccc1 (stereo not shown) [No 214, 5-fluoro-5-phenyl-3-(3-pyridyl)-7H-thieno[2,3-b]pyridine-4,6-dione] |  | A (0%<A<50%) |
| O=C1Nc2sc(Cl)c(-c3ccc(F)cc3O)c2C(=O)C1(F)c1cccc(F)c1 (stereo not shown) [No 215, 2-chloro-5-fluoro-3-(4-fluoro-2-hydroxy-phenyl)-5-(3-fluorophenyl)-7H-thieno[2,3-b]pyridine-4,6-dione] |  | C (C≧75%) |
| O=C1Nc2sc(Cl)c(-c3ccc(F)cc3O)c2C(=O)C1(Cl)c1ccccc1 (stereo not shown) [No 216, 2,5-dichloro-3-(4-fluoro-2-hydroxy-phenyl)-5-phenyl-7H-thieno[2,3-b]pyridine-4,6-dione] |  | C (C≧75%) |
| Cc1ccc(-c2c(Cl)sc3c2C(=O)C(F)(c2cccc(C#N)c2)C(=O)N3)cc1C (stereo not shown) [No 217, 3-[2-chloro-3-(3,4-dimethylphenyl)-5-fluoro-4,6-dioxo-7H-thieno[2,3-b]pyridin-5-yl]benzonitrile] |  | C (C≧75%) |
| CS(=O)(=O)c1ccc(C2(F)C(=O)Nc3sc(Cl)c(-c4ccc(F)cc4O)c3C2=O)cc1 (stereo not shown) [No 218, 2-chloro-5-fluoro-3-(4-fluoro-2-hydroxy-phenyl)-5-(4-methylsulfonylphenyl)-7H-thieno[2,3-b]pyridine-4,6-dione] |  | C (C≧75%) |
| COc1ccc(C2(F)C(=O)Nc3sc(Cl)c(-c4ccc(F)cc4O)c3C2=O)cc1OC (stereo not shown) [No 219, 2-chloro-5-(3,4-dimethoxyphenyl)-5-fluoro-3-(4-fluoro-2-hydroxy-phenyl)-7H-thieno[2,3-b]pyridine-4,6-dione] |  | C (C≧75%) |
| Cc1sc2c(c1-c1ccc(F)cc1O)C(=O)C(F)(c1ccccc1)C(=O)N2 (stereo not shown) [No 220, 5-fluoro-3-(4-fluoro-2-hydroxy-phenyl)-2-methyl-5-phenyl-7H-thieno[2,3-b]pyridine-4,6-dione] |  | B (50%≦B<75%) |
| O=C1Nc2sc(Cl)c(-c3ccccc3)c2C(=O)C1(Cl)c1ccccc1 (stereo not shown) [No 222, 2,5-dichloro-3,5-diphenyl-7H-thieno[2,3-b]pyridine-4,6-dione] |  | C (C≧75%) |
| CCc1ccc(-c2c(Cl)sc3c2C(=O)C(F)(c2ccccc2)C(=O)N3)c(O)c1 (stereo not shown) [No 223, 2-chloro-3-(4-ethyl-2-hydroxy-phenyl)-5-fluoro-5-phenyl-7H-thieno[2,3-b]pyridine-4,6-dione] |  | C (C≧75%) |
| N#Cc1cccc(C2(F)C(=O)Nc3sc(Cl)c(-c4ccc(F)cc4O)c3C2=O)c1 (stereo not shown) [No 224, 3-[2-chloro-5-fluoro-3-(4-fluoro-2-hydroxy-phenyl)-4,6-dioxo-7H-thieno[2,3-b]pyridin-5-yl]benzonitrile] |  | C (C≧75%) |
| COc1ccc(C2(F)C(=O)Nc3sc(Cl)c(-c4ccc(F)cc4O)c3C2=O)cc1C (stereo not shown) [No 225, 2-chloro-5-fluoro-3-(4-fluoro-2-hydroxy-phenyl)-5-(4-methoxy-3-methyl-phenyl)-7H-thieno[2,3-b]pyridine-4,6-dione] |  | C (C≧75%) |
| O=C1Nc2sc(Cl)c(-c3ccc(F)cc3O)c2C(=O)C1(F)c1ccsc1 (stereo not shown) [No 226, 2-chloro-5-fluoro-3-(4-fluoro-2-hydroxy-phenyl)-5-(3-thienyl)-7H-thieno[2,3-b]pyridine-4,6-dione] |  | C (C≧75%) |
| COc1c(-c2c(Cl)sc3c2C(=O)C(F)(c2ccc(F)cc2)C(=O)N3)ccc(C)c1F (stereo not shown) [No 227, 2-chloro-5-fluoro-3-(3-fluoro-2-methoxy-4-methyl-phenyl)-5-(4-fluorophenyl)-7H-thieno[2,3-b]pyridine-4,6-dione] |  | B (50%≦B<75%) |
| Cc1ccc(-c2c(Cl)sc3c2C(=O)C(F)(c2ccc(F)cc2)C(=O)N3)c(O)c1F (stereo not shown) [No 228, 2-chloro-5-fluoro-3-(3-fluoro-2-hydroxy-4-methyl-phenyl)-5-(4-fluorophenyl)-7H-thieno[2,3-b]pyridine-4,6-dione] |  | C (C≧75%) |
| COc1c(-c2c(Cl)sc3c2C(=O)C(F)(c2ccccc2)C(=O)N3)ccc(F)c1C (stereo not shown) [No 229, 2-chloro-5-fluoro-3-(4-fluoro-2-methoxy-3-methyl-phenyl)-5-phenyl-7H-thieno[2,3-b]pyridine-4,6-dione] |  | A (0%<A<50%) |
| COc1c(-c2c(Cl)sc3c2C(=O)C(F)(c2ccccc2)C(=O)N3)ccc(C)c1F (stereo not shown) [No 230, 2-chloro-5-fluoro-3-(3-fluoro-2-methoxy-4-methyl-phenyl)-5-phenyl-7H-thieno[2,3-b]pyridine-4,6-dione] |  | A (0%<A<50%) |
| COC1(c2ccccc2)C(=O)Nc2sc(Cl)c(-c3ccc(F)cc3O)c2C1=O (stereo not shown) [No 231, 2-chloro-3-(4-fluoro-2-hydroxy-phenyl)-5-methoxy-5-phenyl-7H-thieno[2,3-b]pyridine-4,6-dione] |  | C (C≧75%) |
| Cc1ccc(-c2c(Cl)sc3c2C(=O)C(Cl)(c2ccccc2)C(=O)N3)c(O)c1F (stereo not shown) [No 232, 2,5-dichloro-3-(3-fluoro-2-hydroxy-4-methyl-phenyl)-5-phenyl-7H-thieno[2,3-b]pyridine-4,6-dione] |  | C (C≧75%) |
| Cc1c(F)ccc(-c2c(Cl)sc3c2C(=O)C(Cl)(c2ccccc2)C(=O)N3)c1O (stereo not shown) [No 233, 2,5-dichloro-3-(4-fluoro-2-hydroxy-3-methyl-phenyl)-5-phenyl-7H-thieno[2,3-b]pyridine-4,6-dione] |  | C (C≧75%) |
